According to PubChem BioAssay (NCI):
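Five concentrations, 48 hours, 96-well plates. At the TGI there is no net growth.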

Tests used:
Assay in all cases: NCI tumour cell line growth inhibition, 48 h
U251 CNS = system: U251 CNS
786-0 renal = system: 786-0 renal
OVCAR-8 ovarian = system: OVCAR-8 ovarian
SNB-19 CNS = system: SNB-19 CNS
M14 melanoma = system: M14 melanoma
UO-31 renal = system: UO-31 renal
HOP-18 NSCLC = system: HOP-18 NSCLC
COLO 205 colon = system: COLO 205 colon
SR leukemia = system: SR leukemia
HCT-15 colon = system: HCT-15 colon
LOX IMVI melanoma = system: LOX IMVI melanoma
NCI-H522 lung = system: NCI-H522 lung
SK-OV-3 ovarian = system: SK-OV-3 ovarian
HT29 colon = system: HT29 colon
A549 NSCLC = system: A549 NSCLC
HCT-116 colon = system: HCT-116 colon
UACC-257 melanoma = system: UACC-257 melanoma
KM20L2 colon = system: KM20L2 colon
SF-295 CNS = system: SF-295 CNS
NCI-H23 lung = system: NCI-H23 lung
MALME-3M melanoma = system: MALME-3M melanoma
SK-MEL-28 melanoma = system: SK-MEL-28 melanoma
LXFL 529 NSCLC = system: LXFL 529 NSCLC
SW-620 colon = system: SW-620 colon
DMS 273 small cell lung = system: DMS 273 small cell lung
NCI-H226 lung = system: NCI-H226 lung
MOLT-4 leukemia = system: MOLT-4 leukemia
M19-MEL melanoma = system: M19-MEL melanoma
RPMI-8226 leukemia = system: RPMI-8226 leukemia
RXF 393 renal = system: RXF 393 renal
UACC-62 melanoma = system: UACC-62 melanoma
SN12C renal = system: SN12C renal
SK-MEL-5 melanoma = system: SK-MEL-5 melanoma
HOP-62 NSCLC = system: HOP-62 NSCLC
OVCAR-4 ovarian = system: OVCAR-4 ovarian
NCI-H460 lung = system: NCI-H460 lung
ACHN renal = system: ACHN renal
K-562 leukemia = system: K-562 leukemia
EKVX NSCLC = system: EKVX NSCLC
SK-MEL-2 melanoma = system: SK-MEL-2 melanoma
XF 498 CNS = system: XF 498 CNS
SNB-78 CNS = system: SNB-78 CNS
SF-268 CNS = system: SF-268 CNS
TK-10 renal = system: TK-10 renal
HL-60(TB) leukemia = system: HL-60(TB) leukemia
CCRF-CEM leukemia = system: CCRF-CEM leukemia
SNB-75 CNS = system: SNB-75 CNS
KM12 colon = system: KM12 colon
DLD-1 colon = system: DLD-1 colon
DMS 114 small cell lung = system: DMS 114 small cell lung
OVCAR-5 ovarian = system: OVCAR-5 ovarian
IGROV1 ovarian = system: IGROV1 ovarian
SF-539 CNS = system: SF-539 CNS
OVCAR-3 ovarian = system: OVCAR-3 ovarian
HOP-92 NSCLC = system: HOP-92 NSCLC
CAKI-1 renal = system: CAKI-1 renal

Measured: TGI

OC12CCC3(O)c4ccccc4C3C1c1ccccc12 (stereo not drawn)
not listed: DLD-1 colon | DMS 114 small cell lung | OVCAR-5 ovarian | IGROV1 ovarian | SF-539 CNS | OVCAR-3 ovarian | HOP-92 NSCLC | CAKI-1 renal
> 100 µM: all other assays above

O=C(c1ccco1)N(C(=S)N1CCN(c2ccccn2)CC1)c1ccccc1
not listed: EKVX NSCLC
> 100 µM: all other assays above
